Converted amounts (≈) assume the structure as drawn.
What was measured:
S. aureus strain AG461 [1] = assay: Time-kill experiment, S. aureus AG461 (FIG. 1); assay type: cell-based; conditions: 2 and 16 μg/ml (1x and 8x MIC), three hours of contact
Experimental: The bactericidal activity of lysostaphin against S. aureus was also studied by means of time-kill experiments. In one experiment of this type, S. aureus strain AG461, a methicillin-resistant clinical isolate from Genoa, Italy, was inoculated into Mueller-Hinton broth (Difco) and grown at 37° C. with gentle shaking until it reached approximately 10^8 viable cells per ml (CFU/ml), as estimated from the absorbance of the culture at 600 nm. The culture was then diluted with fresh broth to approximately 10^6 CFU/ml and 5 ml aliquots were placed in several different flasks for exposure to different concentrations of antibacterial agents. Incubation was continued, with gentle shaking, at 37° C., and samples were withdrawn at intervals for determination of viable cells. Serial 10-fold dilutions of the samples were made in sterile saline (0.9% NaCl in distilled water) and duplicate 0.1 ml aliquots of appropriate dilutions were plated on Tryptic Soy agar plates (Remel) using the agar inclusion method. (In this method, the aliquot to be plated is added to 2.5 ml of top agar, which is mixed and poured onto a plate. Top agar consisted of molten Tryptic Soy agar (Difco) diluted 2-fold with Difco Tryptic Soy broth to give a final agar concentration of 0.75%, w/v.) The plates were incubated for 24-48 hours at 36° C. and the colonies were counted manually. […]

S. aureus Smith = assay: Acute S. aureus infection model in mice (survival); assay type: in vivo
Experimental: The efficacy of lysostaphin was compared to that of vancomycin in an acute infection model in mice. S. aureus Smith was cultured overnight, with moderate agitation, in Veal Infusion broth (Difco) and diluted in broth containing 5% hog gastric mucin (Difco). Male Swiss-Webster mice (Taconic Farms, Germantown, N.Y.) weighing approximately 20 grams were infected intraperitoneally with 10^5-10^6 viable cells, approximately tenfold the inoculum that reproducibly killed all untreated animals within 48 h. There were six mice in each treatment group. Lysostaphin was administered intravenously (in 0.1 ml 5% dextrose for injection) or subcutaneously (in 0.2 ml), within 10 min of infection. Vancomycin was administered subcutaneously.

[2] = test system: methicillin-resistant VISA strain of S. aureus; assay: Vancomycin MIC for the laboratory-selected VISA strain; assay type: cell-based; conditions: Staphylococcus aureus, variant strain selected after cycles of growth in glycopeptide-containing medium
Experimental: Strains that are both methicillin-resistant and resistant to vancomycin are a newly emerging problem. A variant strain of this type was selected after cycles of growth in glycopeptide-containing medium. The vancomycin MIC for the resulting strain was 8 μg/ml, as reported also for naturally occurring VISA strains isolated from patients in the U.S. and Japan. (Centers for Disease Control and Prevention, Morbidity and Mortality Weekly Report 1997; 46:813-815). Staphylococcal isolates are considered to be susceptible to vancomycin if the MIC is less than or equal to 4 μg/ml and to be completely resistant if the MIC is greater than or equal to 32 μg/ml (National Committee for Clinical Laboratory Standards, 1993. Approved Standard M2-A5. Performance standards for antimicrobial disk susceptibility tests—Fifth edition. National Committee for Clinical Laboratory Standards, Villanova, Pa.)

S. aureus strain AG461 [3] = conditions: strain AG461 (methicillin-resistant clinical isolate)
Description: The different concentrations of lysostaphin and vancomycin used were one and eight times their respective MIC.

S. aureus = assay: MIC by broth macrodilution in glass tubes; assay type: cell-based
Experimental: In this experiment, MICs were determined by broth macrodilution in 1 ml final volumes in glass tubes. Otherwise, the methodology was as described above.

Row | Compound | bactericidal action (killing of the bacteria) (S. aureus strain AG461 [1]) | % survival (S. aureus Smith; 5 mg/kg sc) | MIC [2] | MIC (lower time-kill concentration stated to be one times MIC) (S. aureus strain AG461 [3]) | % survival (S. aureus Smith; Table 4 experiment, dose 0.08 mg/kg) | % survival (S. aureus Smith; Table 4 experiment, dose 0.16 mg/kg) | % survival (S. aureus Smith; Table 4 experiment, dose 0.31 mg/kg) | % survival (S. aureus Smith; Table 4 experiment, dose 0.63 mg/kg) | MIC (S. aureus; strain AG402 (clinical isolate)) | MIC (S. aureus; strain AG404 (clinical isolate, methicillin-resistant)) | MIC (S. aureus; strain AG414) | MIC (S. aureus; strain AG417)
1 | CN[C@H](CC(C)C)C(=O)N[C@H]1C(=O)N[C@@H](CC(N)=O)C(=O)N[C@H]2C(=O)N[C@H]3C(=O)N[C@H](C(=O)N[C@H](C(=O)O)c4cc(O)cc(O)c4-c4cc3ccc4O)[C@H](O)c3ccc(c(Cl)c3)Oc3cc2cc(c3O[C@@H]2O[C@H](CO)[C@@H](O)[C@H](O)[C@H]2O[C@H]2C[C@](C)(N)[C@H](O)[C@H](C)O2)Oc2ccc(cc2Cl)[C@H]1O [vancomycin, reference compound] | very little killing | 100% | 8 µg/mL (≈ 5.52 µM) | 2 µg/mL (≈ 1.38 µM) | – | – | – | – | – | – | – | –
2 | Gly218Asp: lysostaphin variant with a single change, glycine to aspartic acid, at position 218 of the mature protein | – | – | – | – | 0% | 17% | 33% | 83% | .06 µg/mL | .06 µg/mL | .03 µg/mL | .03 µg/mL
